From US20250339409A1, “USES OF PAN BET INHIBITORS” (VYNE THERAPEUTICS INC., priority 2021, published 2025)
Where “and” joins values, the source holds several entries; their conditions need not be identical. Equal values may be shown once. Marks after values point to notes of the source that are not given here.

Test system: anti collagen antibodies induced arthritis (ACAIA)
Assay: Anti collagen antibodies induced arthritis (ACAIA) in mice, intra-articular treatment: paw thickness, arthritis clinical score, body weight;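 further: mouse arthritis induced by IV anti-collagen mAb on day 0 plus IP LPS on day 4, with body weight, caliper paw thickness and 0-4 paw score tracked against a day 0 baseline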
Conditions: for Average clinical score per day (untreated): untreated leg
[1] = Dexamethasone 1 mg/kg IA (Group 7), Av
[2] = Dexamethasone 1 mg/kg IA (Group 7), individual animals
[3] = Dexamethasone 1 mg/kg IP (Group 6), Av
[4] = Dexamethasone 1 mg/kg IP (Group 6), individual animals

Structure (SMILES): C[C@@H]1C[C@H]2[C@@H]3CCC4=CC(=O)C=C[C@]4(C)[C@@]3(F)[C@@H](O)C[C@]2(C)[C@@]1(O)C(=O)CO [dexamethasone, Dexamethasone, reference compound]
- Paw thickness of treated leg (Avg.) (1 mg/kg IP (Group 6), Day 6): 2.25** mm
- Percent change of weight per day (Av) (1 mg/kg IP (Group 6), Day 6): 87.71%
- Percent change of weight per day (individual animal) (1 mg/kg IP (Group 6), Day 6): 88.44% and 86.7% and 89.66% and 86.18% and 86.85% and 89.74% and 86.41%
- Δ clinical score untreated -treated, Avg. Delta (1 mg/kg IP (Group 6), Day 6): 0.00 points
- Clinical score of treated leg (Avg.) (1 mg/kg IP (Group 6), Day 7): 0.00** points
- Paw thickness Avg. Delta untreated -treated (1 mg/kg IP (Group 6), Day 7): 0.03 mm
- Paw thickness of treated leg (Avg.) (1 mg/kg IP (Group 6), Day 7): 2.16**** mm
- Percent change of weight per day (Av) (1 mg/kg IP (Group 6), Day 7): 88.39%
- Percent change of weight per day (individual animal) (1 mg/kg IP (Group 6), Day 7): 89.45% and 85.22% and 88.67% and 87.5576% and 88.73% and 90.26% and 88.83%
- Δ clinical score untreated -treated, Avg. Delta (1 mg/kg IP (Group 6), Day 7): 0.00 points
- Clinical score of treated leg (Avg.) (1 mg/kg IP (Group 6), Day 8): 0.00** points
- Paw thickness Avg. Delta untreated -treated (1 mg/kg IP (Group 6), Day 8): 0.10 mm
- Percent change of weight per day (Av) (1 mg/kg IP (Group 6), Day 8): 88.85%
- Percent change of weight per day (individual animal) (1 mg/kg IP (Group 6), Day 8): 89.95% and 85.22% and 87.68% and 91.24% and 88.73% and 91.28% and 87.86%
- Δ clinical score untreated -treated, Avg. Delta (1 mg/kg IP (Group 6), Day 8): 0.00 points
- Clinical score of treated leg (Avg.) (1 mg/kg IP (Group 6), Day 10): 0.14* points
- Paw thickness Avg. Delta untreated -treated (1 mg/kg IP (Group 6), Day 10): −0.04 mm
- Paw thickness of treated leg (Avg.) (1 mg/kg IP (Group 6), Day 10): 2.09** mm
- Percent change of weight per day (Av) (1 mg/kg IP (Group 6), Day 10): 88.77%
- Percent change of weight per day (individual animal) (1 mg/kg IP (Group 6), Day 10): 89.45% and 86.7% and 88.18% and 91.24% and 88.26% and 89.23% and 88.35%
- Δ clinical score untreated -treated, Avg. Delta (1 mg/kg IP (Group 6), Day 10): −0.14 points
- Clinical score of treated leg (Avg.) (1 mg/kg IP (Group 6), Day 12): 0.00* points
- Paw thickness Avg. Delta untreated -treated (1 mg/kg IP (Group 6), Day 12): −0.02 mm
- Percent change of weight per day (Av) (1 mg/kg IP (Group 6), Day 12): 90.11%
- Percent change of weight per day (individual animal) (1 mg/kg IP (Group 6), Day 12): 91.9598% and 88.18% and 91.133* percent and 90.78% and 90.14% and 89.23% and 89.32%
- Δ clinical score untreated -treated, Avg. Delta (1 mg/kg IP (Group 6), Day 12): 0.00 points
- Weight per day, Baseline [1]: 19.8 g
- Weight per day, Day 3 [1]: 19.5 g
- Weight per day, Day 4 [1]: 18.8 g
- Weight per day, Day 5 [1]: 18.1 g
- Weight per day, Day 6 [1]: 17.5 g
- Weight per day, Day 7 [1]: 17.4 g
- Weight per day, Day 8 [1]: 17.7 g
- Weight per day, Day 10 [1]: 18.3 g
- Weight per day, Baseline [2]: 19.1 g and 20.3 g and 18.6 g and 19.2 g and 20.2 g (2×) and 20.9 g
- Weight per day, Day 3 [2]: 19.1 g (2×) and 19.8 g and 17.8 g and 19.9 g and 19.7 g and 20.6 g
- Weight per day, Day 4 [2]: 18.7 g and 19.6 g and 17.3 g and 17.9 g and 19.2 g and 19.1 g and 20.1 g
- Weight per day, Day 5 [2]: 17.3 g and 18.5 g and 16.5 g and 19.2 g and 18.2 g and 17.7 g and 19 g
- Weight per day, Day 6 [2]: 16.6 g and 17.8 g and 16 g and 19.6 g and 17.7 g and 17.1 g and 17.9 g
- Weight per day, Day 7 [2]: 17 g and 16.9 g and 16 g and 20 g and 17.4 g and 15.8 g and 18.7 g
- Weight per day, Day 8 [2]: 17.2 g and 16.9 g and 16.3 g and 20.1 g and 18 g and 16.4 g and 18.9 g
- Weight per day, Day 10 [2]: 17.4 g and 18.8 g and 16.3 g and 20 g and 18.2 g (2×) and 19.4 g
- Weight per day, Baseline [3]: 20.5 g
- Weight per day, Day 3 [3]: 19.6 g
- Weight per day, Day 4 [3]: 19.8 g
- Weight per day, Day 5 [3]: 18.1 g
- Weight per day, Day 6 [3]: 18 g
- Weight per day, Day 7 [3]: 18.1 g
- Weight per day, Day 8 [3]: 18.2 g
- Weight per day, Day 10 [3]: 18.2 g
- Weight per day, Baseline [4]: 19.9 g and 20.3 g (2×) and 21.7 g and 21.3 g and 19.5 g and 20.6 g
- Weight per day, Day 3 [4]: 18.9 g and 19.1 g and 19.3 g and 20.9 g and 20.5 g and 18.8 g and 19.8 g
- Weight per day, Day 4 [4]: 19.2 g and 19.4 g and 19.7 g and 20.9 g and 20.6 g and 19 g and 19.9 g
- Weight per day, Day 5 [4]: 17.6 g and 17.5 g (2×) and 18.6 g and 18.7 g and 18.5 g and 18.4 g
- Weight per day, Day 6 [4]: 17.6 g (2×) and 18.2 g and 18.7 g and 18.5 g and 17.5 g and 17.8 g
- Weight per day, Day 7 [4]: 17.8 g and 17.3 g and 18 g and 19 g and 18.9 g and 17.6 g and 18.3 g
- Weight per day, Day 8 [4]: 17.9 g and 17.3 g and 17.8 g (2×) and 19.8 g and 18.9 g and 18.1 g
- Weight per day, Day 10 [4]: 17.8 g and 17.6 g and 17.9 g and 19.8 g and 18.8 g and 17.4 g and 18.2 g
- average arthritis score, treated limbs (intra-articular 1 mg/kg, day 12, scale 0-4): 1.3
- Average clinical score per day (untreated) (1 mg/kg IA (Group 7), Baseline): 0.00 points
- Average clinical score per day (untreated) (1 mg/kg IA (Group 7), Day 3): 0.00 points
- Average clinical score per day (untreated) (1 mg/kg IA (Group 7), Day 4): 0.00 points
- Average clinical score per day (untreated) (1 mg/kg IA (Group 7), Day 5): 0.00 points
- Average clinical score per day (untreated) (1 mg/kg IA (Group 7), Day 6): 0.57 points
- Average clinical score per day (untreated) (1 mg/kg IA (Group 7), Day 7): 0.86 points
- Average clinical score per day (untreated) (1 mg/kg IA (Group 7), Day 8): 1.71 points
- Average clinical score per day (untreated) (1 mg/kg IA (Group 7), Day 10): 1.57 points
- Average clinical score per day (untreated) (1 mg/kg IA (Group 7), Day 12): 1.71 points
- Average clinical score per day (untreated) (1 mg/kg IP (Group 6), Baseline): 0.00 points
- Average clinical score per day (untreated) (1 mg/kg IP (Group 6), Day 3): 0.00 points
- Average clinical score per day (untreated) (1 mg/kg IP (Group 6), Day 4): 0.00 points
- Average clinical score per day (untreated) (1 mg/kg IP (Group 6), Day 5): 0.00 points
- Average clinical score per day (untreated) (1 mg/kg IP (Group 6), Day 6): 0.00 points
- Average clinical score per day (untreated) (1 mg/kg IP (Group 6), Day 7): 0.00 points
- Average clinical score per day (untreated) (1 mg/kg IP (Group 6), Day 8): 0.00 points
- Average clinical score per day (untreated) (1 mg/kg IP (Group 6), Day 10): 0.00 points
- Average clinical score per day (untreated) (1 mg/kg IP (Group 6), Day 12): 0.00 points
